Reference: patent US11590139B2, “Substituted aminopurine compounds, compositions thereof, and methods of treatment therewith” (Signal Pharmaceuticals, LLC, priority 2014, dated 2023)

system: Lox-IMVI melanoma cell line; assay: Lox-IMVI anti-proliferative assay (growth inhibition, Cell Titer-Glo); assay type: cell-based, human; conditions: Homo sapiens; IC50 activity level in the cell-based Lox-IMVI anti-proliferative assay; read-out: Activity
Summary of the method: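 IC50 values reflect the concentration giving 50% of DMSO-control luminescence after 72 h of treatment, fitted with a four-parameter logistic model. Cells were cultured in RPMI + 10% FBS with compound from 0.5 nM to 10 μM.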

`NC(=O)[C@H]1CC[C@@H](n2c(Nc3c(Cl)cc(F)cc3Cl)nc3cnc(NC4CCC4)nc32)CC1` [Example 118, (1s,4s)-4-(2-(cyclobutylamino)-8-(2,6-dichloro-4-fluorophenylamino)-9H-purin-9-yl)cyclohexanecarboxamide] and `NC(=O)[C@H]1CC[C@@H](n2c(Nc3c(F)cc(F)cc3Cl)nc3cnc(NC4CCC4)nc32)CC1` [Example 117, (1s,4s)-4-(8-(2-chloro-4,6-difluorophenylamino)-2-(cyclobutylamino)-9H-purin-9-yl)cyclohexanecarboxamide] fall in the same range of IC50: 0.5 to 1 µM for the first, 0.5 to 1 µM for the second.

First: C[C@@H]1CC[C@@H](Nc2ncc3nc(Nc4c(F)cc(Cl)cc4F)n([C@H]4CC[C@@H](C(N)=O)CC4)c3n2)C[C@H]1O [Example 356, (1S,4s)-4-(8-(4-chloro-2,6-difluorophenylamino)-2-((1R,3R,4R)-3-hydroxy-4-methylcyclohexylamino)-9H-purin-9-yl)cyclohexanecarboxamide]
Second: NC(=O)[C@H]1CC[C@@H](n2c(Nc3c(F)cc(Cl)cc3Cl)nc3cnc(N[C@@H]4CC[C@@H](O)C4)nc32)CC1 [Example 213, (1S,4s)-4-(8-(2,4-dichloro-6-fluorophenylamino)-2-((1R,3R)-3-hydroxycyclopentylamino)-9H-purin-9-yl)cyclohexanecarboxamide]
The IC50 of the first is higher: > 1 µM for the first, 0.25 to 0.5 µM for the second. The second is the more potent here.

`NC(=O)[C@H]1CC[C@@H](n2c(Nc3c(F)cc(F)cc3F)nc3cnc(N[C@@H]4CCOC[C@@H]4F)nc32)CC1` [Example 307, (1S,4s)-4-(2-((3R,4R)-3-fluorotetrahydro-2H-pyran-4-ylamino)-8-(2,4,6-trifluorophenylamino)-9H-purin-9-yl)cyclohexanecarboxamide] and `NC(=O)[C@H]1CC[C@@H](n2c(Nc3c(F)ccc(F)c3F)nc3cnc(N[C@@H]4CC[C@@H](O)C4)nc32)CC1` [Example 218, (1S,4s)-4-(2-((1R,3R)-3-hydroxycyclopentylamino)-8-(2,3,6-trifluorophenylamino)-9H-purin-9-yl)cyclohexanecarboxamide] cannot be ordered by IC50: > 1 µM for the first, > 1 µM for the second.

First: NC(=O)[C@H]1CC[C@@H](n2c(Nc3c(Cl)ccc(F)c3F)nc3cnc(NC4CCOCC4)nc32)CC1 [Example 113, (1s,4s)-4-(8-(6-chloro-2,3-difluorophenylamino)-2-(tetrahydro-2H-pyran-4-ylamino)-9H-purin-9-yl)cyclohexanecarboxamide]
Second: NC(=O)[C@H]1CC[C@@H](n2c(Nc3c(F)ccc(Cl)c3F)nc3cnc(NC4CCOCC4)nc32)CC1 [Example 67, (1s,4s)-4-(8-(3-chloro-2,6-difluorophenylamino)-2-(tetrahydro-2H-pyran-4-ylamino)-9H-purin-9-yl)cyclohexanecarboxamide]
The IC50 of the first is lower: 0.5 to 1 µM for the first, > 1 µM for the second. The first is the more potent here.

`NC(=O)[C@H]1CC[C@@H](n2c(Nc3c(Cl)cc(Cl)cc3Cl)nc3cnc(N[C@H]4CC[C@H](O)CC4)nc32)CC1` [Example 78, (1s,4s)-4-(2-((1r,4r)-4-hydroxycyclohexylamino)-8-(2,4,6-trichlorophenylamino)-9H-purin-9-yl)cyclohexanecarboxamide] and `NC(=O)[C@H]1CC[C@@H](n2c(Nc3c(F)ccc(Cl)c3F)nc3cnc(N[C@@H]4CCC[C@H](O)C4)nc32)CC1` [Example 362, (1S,4s)-4-(8-(3-chloro-2,6-difluorophenylamino)-2-((1R,3S)-3-hydroxycyclohexylamino)-9H-purin-9-yl)cyclohexanecarboxamide] cannot be ordered by IC50: > 1 µM for the first, > 1 µM for the second.

`NC(=O)[C@H]1CC[C@@H](n2c(Nc3c(Cl)cccc3Cl)nc3cnc(NC4CCC(F)(F)CC4)nc32)CC1` [Example 236, (1s,4s)-4-(8-(2,6-dichlorophenylamino)-2-(4,4-difluorocyclohexylamino)-9H-purin-9-yl)cyclohexanecarboxamide] showed an IC50 of 0.25 to 0.5 µM.

same assay, conditions: Homo sapiens; Lox-IMVI anti-proliferative assay, IC50 activity level; read-out: Activity

`N#Cc1cc(F)c(Nc2nc3cnc(NC4CC5(COC5)C4)nc3n2[C@H]2CC[C@@H](C(N)=O)CC2)c(F)c1` [Example 573, (1s,4s)-4-(2-(2-oxaspiro[3.3]heptan-6-ylamino)-8-(4-cyano-2,6-difluorophenylamino)-9H-purin-9-yl)cyclohexanecarboxamide] and `NC(=O)[C@H]1CC[C@@H](n2c(Nc3c(F)cc(F)cc3F)nc3cnc(N[C@@H]4CCC[C@@H](O)C4)nc32)CC1` [Example 418, (1S,4s)-4-(2-((1R,3R)-3-hydroxycyclohexylamino)-8-(2,4,6-trifluorophenylamino)-9H-purin-9-yl)cyclohexanecarboxamide] cannot be ordered by IC50: > 1 µM for the first, > 1 µM for the second.

`N#Cc1ccc(F)c(Nc2nc3cnc(NC4CCOCC4)nc3n2[C@H]2CC[C@@H](C(N)=O)CC2)c1F` [Example 447, (1s,4s)-4-(8-(3-cyano-2,6-difluorophenylamino)-2-(tetrahydro-2H-pyran-4-ylamino)-9H-purin-9-yl)cyclohexanecarboxamide] and `NC(=O)[C@H]1CC[C@@H](n2c(Nc3ccc(Cl)c(F)c3F)nc3cnc(N[C@@H]4CCCC[C@H](O)C4)nc32)CC1` [Example 440, (1S,4s)-4-(8-(4-chloro-2,3-difluorophenylamino)-2-((1R,3S)-3-hydroxycycloheptylamino)-9H-purin-9-yl)cyclohexanecarboxamide] cannot be ordered by IC50: > 1 µM for the first, > 1 µM for the second.

Compared with `C[C@@H](CO)Nc1ncc2nc(Nc3c(Cl)cc(F)cc3Cl)n([C@H]3CC[C@@](C)(C(N)=O)CC3)c2n1` [Example 551, (1R,4s)-4-(8-(2,6-dichloro-4-fluorophenylamino)-2-((S)-1-hydroxypropan-2-ylamino)-9H-purin-9-yl)-1-methylcyclohexanecarboxamide], `C[C@]1(C(N)=O)CC[C@@H](n2c(Nc3c(F)cc(F)cc3Cl)nc3cnc(N[C@@H]4CCC[C@H](O)C4)nc32)CC1` [Example 576, (1S,4s)-4-(8-(2-chloro-4,6-difluorophenylamino)-2-((1R,3S)-3-hydroxycyclohexylamino)-9H-purin-9-yl)-1-methylcyclohexanecarboxamide] is higher in IC50: < 0.25 µM for the first, 0.25 to 0.5 µM for the second. The first is the more potent here.

Compared with `NC(=O)[C@H]1CC[C@@H](n2c(Nc3c(Cl)cc(Cl)cc3Cl)nc3cnc(N[C@H]4CCC(F)(F)C4)nc32)CC1` [Example 594, (1R,4s)-4-(2-((S)-3,3-difluorocyclopentylamino)-8-(2,4,6-trichlorophenylamino)-9H-purin-9-yl)cyclohexanecarboxamide], `C[C@]1(C(N)=O)CC[C@@H](n2c(Nc3c(Cl)cc(C(F)(F)F)cc3Cl)nc3cnc(N[C@@H]4CCC[C@H](O)C4)nc32)CC1` [Example 577, (1S,4s)-4-(8-(2,6-dichloro-4-(trifluoromethyl)phenylamino)-2-((1R,3S)-3-hydroxycyclohexylamino)-9H-purin-9-yl)-1-methylcyclohexanecarboxamide] is higher in IC50: 0.25 to 0.5 µM for the first, > 1 µM for the second.

First: C[C@]1(C(N)=O)CC[C@H](n2c(Nc3c(Cl)cc(C#N)cc3Cl)nc3cnc(NC4CCOCC4)nc32)CC1 [Example 475, (1r,4r)-4-(8-(2,6-dichloro-4-cyanophenylamino)-2-(tetrahydro-2H-pyran-4-ylamino)-9H-purin-9-yl)-1-methylcyclohexanecarboxamide]
Second: NC(=O)[C@H]1CC[C@@H](n2c(Nc3c(F)cc(Cl)cc3F)nc3cnc(NCC(F)(F)CO)nc32)CC1 [Example 453, (1s,4s)-4-(8-(4-chloro-2,6-difluorophenylamino)-2-(2,2-difluoro-3-hydroxypropylamino)-9H-purin-9-yl)cyclohexanecarboxamide]
The IC50 of the first is lower: 0.5 to 1 µM for the first, > 1 µM for the second. The first is the more potent here.

same assay, conditions: Homo sapiens; Lox-IMVI melanoma cell line, anti-proliferative assay; read-out: Activity (IC50 activity level)

Compared with `CS(=O)(=O)C1CC(Nc2ncc3nc(Nc4c(Cl)cc(C#N)cc4Cl)n([C@H]4CC[C@@H](C(N)=O)CC4)c3n2)C1` (stereo partly shown) [Example 730, (1s,4s)-4-(8-(2,6-dichloro-4-cyanophenylamino)-2-(3-(methylsulfonyl)cyclobutylamino)-9H-purin-9-yl)cyclohexanecarboxamide], `C[C@]1(C(N)=O)CC[C@@H](n2c(Nc3c(Cl)cc(C#N)cc3Cl)nc3cnc(N[C@@H]4CCOC[C@H]4F)nc32)CC1` [Example 760, (1S,4s)-4-(8-(2,6-dichloro-4-cyanophenylamino)-2-((3S,4R)-3-fluorotetrahydro-2H-pyran-4-ylamino)-9H-purin-9-yl)-1-methylcyclohexanecarboxamide] is lower in IC50: > 1 µM for the first, < 0.25 µM for the second.

`NC(=O)[C@H]1CC[C@@H](n2c(Nc3c(F)cc(Cl)cc3F)nc3cnc(N[C@@H]4CCCN(c5ccccc5)C4)nc32)CC1` [Example 747, (1S,4s)-4-(8-(4-chloro-2,6-difluorophenylamino)-2-((R)-1-phenylpiperidin-3-ylamino)-9H-purin-9-yl)cyclohexanecarboxamide] and `NC(=O)[C@H]1CC[C@@H](n2c(Nc3c(Cl)cc(F)cc3Cl)nc3cnc(N[C@@H]4CCCN(Cc5ccccc5)C4)nc32)CC1` [Example 759, (1S,4s)-4-(2-((R)-1-benzylpiperidin-3-ylamino)-8-(2,6-dichloro-4-fluorophenylamino)-9H-purin-9-yl)cyclohexanecarboxamide] cannot be ordered by IC50: > 1 µM for the first, > 1 µM for the second.

First: N#Cc1ccc(Nc2nc3cnc(NC4CCOCC4)nc3n2[C@H]2CC[C@@H](C(N)=O)CC2)c(Cl)c1Cl [Example 696, (1s,4s)-4-(8-(2,3-dichloro-4-cyanophenylamino)-2-(tetrahydro-2H-pyran-4-ylamino)-9H-purin-9-yl)cyclohexanecarboxamide]
Second: NC(=O)[C@H]1CC[C@@H](n2c(Nc3c(Cl)cc(F)cc3Cl)nc3cnc(NC4CCC(c5ncno5)CC4)nc32)CC1 (stereo partly shown) [Example 679, (1s,4s)-4-(2-(4-(1,2,4-oxadiazol-5-yl)cyclohexylamino)-8-(2,6-dichloro-4-fluorophenylamino)-9H-purin-9-yl)cyclohexanecarboxamide]
The IC50 of the first is lower: 0.5 to 1 µM for the first, > 1 µM for the second. The first is the more potent here.

same assay, conditions: Lox-IMVI anti-proliferative assay, IC50 activity level; read-out: Activity

In the case of “(R)-methyl 3-(9-((1s,4S)-4- carbamoylcyclohexyl)-8-(2,3,4- trifluorophenylamino)-9H-purin-2- ylamino)piperidine-1-carboxylate [Example 414]”, the IC50 is reported as > 1 µM.
